Read-outs that look alike come from different tables or passages of the source.
Key:
Growing KB cells = test: Cytotoxicity in growing KB cells (crystal violet staining); format: cell-based
Procedure: (§1) Cells and viruses. The routine growth and passage of KB cells was performed in monolayer cultures using minimal essential medium (MEM) with either Hanks salts [MEM(H)] or Earle salts [MEM(E)] supplemented with 10% calf serum. The sodium bicarbonate concentration was varied to meet the buffering capacity required. Cultures of diploid human foreskin fibroblasts (HFF) or MRC-5 cells were grown in medium consisting of MEM(E) with 10% fetal bovine serum. Cells were passaged at 1:2 to 1:10 dilutions according to conventional procedures by using 0.05% trypsin plus 0.02% EDTA in a HEPES buffered salt solution (HBS) (Shipman, C., Jr., Proc. Soc. Exp. Biol. 130:305–310 (1969)) as described previously. (Turk, S. R., et al., Antimicrob. Agents Chemother. 31:544–550 (1987). HFF and MRC-5 cells were passaged only at 1:2 dilutions.
(§2) Cytotoxicity assays. Two different assays were used to explore cytotoxicity of selected compounds as we have detailed previously. (i) Cytotoxicity produced in stationary HFF cells was determined by microscopic inspection of cells used in plaque assays which were not affected by the virus. (ii) The effect of compounds during two population doublings of KB cells was determined by crystal violet staining and spectrophotometric quantitation of dye eluted from stained cells. (Turk, S. R., et al., Antimicrob. Agents Chemother. 35:1060–1065 (1991).
(§3) Data Analysis. Dose-response relationships were constructed by linearly regressing the percent inhibition of parameters derived in the preceding sections against log drug concentrations. Fifty-percent inhibitory (IC50) concentrations were calculated from the regression lines. Samples containing positive controls (acyclovir for HSV-1, ganciclovir for HCMV, and 2-acetylpyridine thiosemicarbazone for cytotoxicity) were used in all assays. Results from sets of assays were rejected if inhibition by the positive control deviated from its mean response by >±1.5 standard deviations.

HSV-1 = HSV-1 ELISA in BSC-1 cells; format: cell-based
Procedure: as §1
(§4) Virological procedures. Stock HCMV was prepared by infecting HFF cells at a multiplicity of infection (m.o.i.) of <0.01 plaque-forming units (p.f.u.) per cell. Cell growth medium was changed every four days until cytopathology was evident in all cells (approximately 21 days). Supernatant fluids were retained as the virus stock. High titer HSV-1 stocks were prepared by infecting KB cells at an m.o.i. of <0.1 as detailed previously. (Turk, S. R., et al., Antimicrob. Agents Chemother. 31:544–550 (1987). Virus titers were determined using monolayer cultures of HFF cells for HCMV and monolayer cultures of BSC-1 cells for HSV-1 as described earlier. (Prichard, M. N. et al., J. Virol. Methods 28:101–106 (1990). Briefly, HFF or BSC-1 cells were planted as described above in 96-well cluster dishes and incubated overnight at 37° C. in a humidified 3% CO2–97% air atmosphere. The next day cultures were inoculated with HCMV or HSV-1 and serially diluted 1:3 across the remaining eleven columns of the 96-well plate. Cultures were incubated at 37° C. for 2 hr to permit virus adsorption and then virus inoculum was replaced with 0.2 mL of fresh medium. Cultures were incubated for seven days for HCMV, two or three days for HSV-1, medium was removed, and the cell sheets were stained with 0.1% crystal violet in 20% methanol. Plaques were enumerated under 20-fold magnification in wells having the dilution which gave 5 to 20 plaques per well. Virus titers were calculated according to the following formula: Titer (p.f.u./mL)=number of plaques×5×3^n; where n represents the nth dilution of the virus used to infect the well in which plaques were enumerated.
Assays for Antiviral Activity. (b) HSV-1. An enzyme-linked immunosorbent assay (ELISA) was employed to detect HSV-1. 96-well cluster dishes were planted with BSC-1 cells at 10,000 cells per well, in a total volume of 200 μL per well of MEM(E) plus 10% calf serum. After overnight incubation at 37° C., drug and HSV-1 was added at the rate of 100 PFU/well. ELISA plates were blocked with 200 μL per well of 10% calf serum and 0.05% tween in HBS. After incubation for 30 minutes, the blocking agent was rinsed two times with HBS-T. A 1:400 dilution of AP conjugated rabbit anti-HSV-1 antibody in HBS-F was added. Plates were sealed with adhesive sheet, and incubated on rocker for one hour at 37° C. Plates were developed in the dark with 100 μL per well of substrate solution containing p-nitrophenyl phosphate. Plates were read at 492 nm. Drug effects were calculated as a percentage of the reduction in virus in the presence of each drug concentration compared to the titer obtained in the absence of drug. Acyclovir was used as a positive control in all experiments.
as §3, with “Results from sets of assays were rejected if inhibition by the positive control deviated from its mean response by >±1.5 standard deviations.” left out

HCMV = HCMV plaque reduction assay in HFF cells; format: cell-based
Procedure: as §1, §4
Assays for Antiviral Activity. (a) HCMV. The effect of compounds on the replication of HCMV has been measured using a plaque reduction assay. HFF cells in 24-well cluster dishes were infected with approximately 100 p.f.u. of HCMV per cm^2 cell sheet using the procedures detailed above. Following virus adsorption, compounds dissolved in growth medium were added to duplicate wells in three to six selected concentrations. Following incubation at 37° C. for 7 to 10 days, cell sheets were fixed, stained with crystal violet and microscopic plaques enumerated as described above. Drug effects were calculated as a percentage of reduction in number of plaques in the presence of each drug concentration compared to the number observed in the absence of drug. Ganciclovir (GCV) was used as a positive control in all experiments.
as §3

Stationary HFF cells = test: Cytotoxicity in stationary HFF cells (microscopic inspection); format: cell-based, human
Procedure: as §1, §2, §3

SMILES	IC50 (Growing KB cells; Homo sapiens) [µM]	IC50 (HSV-1; Human alphaherpesvirus 1) [µM]	IC50 (HCMV; HFF host cells) [µM]	IC50 (Stationary HFF cells) [µM]	IC50 (Growing KB cells) [µM]	IC50 (HSV-1) [µM]	IC50 (HCMV; Human betaherpesvirus 5, HFF host cells) [µM]	IC50 (Stationary HFF cells; Homo sapiens) [µM]
Nc1nc2c(ncn2COCCO)c(=O)[nH]1 [Acyclovir, reference compound]	> 100	0.15	–	–	–	–	–	–
C=CCNc1nc(N)nc2c1ncn2/C=C1/C[C@@H]1CO [Compound 6, (Z,S)-(+)-2-Amino-6-allylamino-9-[(2-hydroxymethyl)cyclopropylidenemethyl]purine]	–	–	1.8	> 100	> 100	4	–	–
C#CCNc1nc(N)nc2c1ncn2/C=C1/C[C@@H]1CO [Compound 7, (Z,S)-(+)-2-Amino-6-propargylamino-9-[(2-hydroxymethyl)-cyclopropylidenemethyl]purine]	–	–	3.5	> 100	> 100	6	–	–
Nc1nc(NCC2CC2)c2ncn(/C=C3/C[C@@H]3CO)c2n1 [Compound 8, (Z,S)-(+)-2-Amino-6-cyclopropylmethylamino-9-[(2-hydroxymethyl)cyclopropylidenemethyl]purine]	–	–	3.8	> 100	> 100	2.5	–	–
CC(C)Nc1nc(N)nc2c1ncn2/C=C1/C[C@@H]1CO [Compound 9, (Z,S)-(+)-2-Amino-6-isopropylamino-9-[(2-hydroxymethyl)-cyclopropylidenemethyl]purine]	–	–	3.8	> 100	> 100	15	–	–
Nc1nc(NCc2ccccc2)c2ncn(/C=C3/C[C@@H]3CO)c2n1 [Compound 10, (Z,S)-(+)-2-Amino-6-benzylamino-9-[(2-hydroxymethyl)cyclopropylidenemethyl]purine]	–	–	> 100	> 100	> 100	25	–	–
Nc1nc(NC2CCCCC2)c2ncn(/C=C3/C[C@@H]3CO)c2n1 [Compound 11, (Z,S)-(+)-2-Amino-6-cyclohexylamino-9-[(2-hydroxymethyl)-cyclopropylidenemethyl]purine]	–	–	> 100	> 100	> 100	15	–	–
Nc1nc(NCCO)c2ncn(/C=C3/C[C@@H]3CO)c2n1 [Compound 12, (Z,S)-(+)-2-Amino-6-(2-hydroxy)ethylamino-9-[(2-hydroxymethyl)cyclopropylidenemethyl]purine]	–	–	39	> 100	> 100	> 100	–	–
CCCOc1nc(N)nc2c1ncn2/C=C1/C[C@@H]1CO [Compound 13a, (Z,S)-(+)-2-Amino-6-propoxy-9-[(2-hydroxymethyl)cyclopropylidenemethyl]purine]	–	–	0.26	> 100	> 100	1	–	–
CCCCCOc1nc(N)nc2c1ncn2/C=C1/C[C@@H]1CO [Compound 13b, (Z,S)-(+)-2-Amino-6-pentyloxy-9-[(2-hydroxymethyl)cyclopropylidenemethyl]purine]	–	–	0.21	> 100	> 100	7	–	–
C=CCOc1nc(N)nc2c1ncn2/C=C1/C[C@@H]1CO [Compound 14, (Z,S)-(+)-2-Amino-6-allyloxy-9-[(2-hydroxymethyl)cyclopropylidenemethyl]purine]	–	–	0.33	> 100	> 100	1.5	–	–
Nc1nc(OCC2CC2)c2ncn(/C=C3/C[C@@H]3CO)c2n1 [Compound 15, (Z,S)-(+)-2-Amino-6-cyclopropylmethoxy-9-[(2-hydroxymethyl)cyclopropylidenemethyl]purine]	–	–	0.32	> 100	> 100	7	–	–
CCCSc1nc(N)nc2c1ncn2/C=C1/C[C@@H]1CO [Compound 16a, (Z,S)-(+)-2-Amino-6-propylthio-9-[(2-hydroxymethyl)cyclopropylidenemethyl]purine]	–	–	0.22	> 100	> 100	1	–	–
CCCCCSc1nc(N)nc2c1ncn2/C=C1/C[C@@H]1CO [Compound 16b, (Z,S)-(+)-2-Amino-6-pentylthio-9-[(2-hydroxymethyl)cyclopropylidenemethyl]purine]	–	–	0.32	> 100	> 100	7	–	–
Nc1nc(S)c2ncn(/C=C3/C[C@@H]3CO)c2n1 [Compound 17, (Z,S)-(+)-2-Amino-6-thio-9-[(2-hydroxymethyl)cyclopropylidenemethyl]purine]	–	–	37	> 100	> 100	> 100	–	–
Nc1ncc2ncn(/C=C3/C[C@@H]3CO)c2n1 [Compound 18, (Z,S)-(+)-2-Amino-9-[(2-hydroxymethyl)cyclopropylidenemethyl]purine]	–	–	> 100	> 100	> 100	35	–	–
Nc1nc(O)c2ncn(COC(CO)CO)c2n1 [Ganciclovir, reference compound]	–	–	–	–	–	–	4.1	> 100

From US7183268B2, “2-amino-9-[(2-hydroxymethyl) cyclopropylidenemethyl] purine antiviral agents” (Wayne State University, priority 2002, dated 2007)
